According to patent publication US10428067B2, “Compounds and methods for kinase modulation” (Plexxikon Inc., priority 2017, dated 2019):

Tests used:
[1] = target: TGFβR2 (Homo sapiens, UniProt P37173); assay: Biochemical TGFβR2 assay (LanthaScreen Europium Kinase Binding Assay); conditions: geometric mean; tracer displacement, five concentrations 1.0-0.0039 μM in duplicate; read-out: TGFBR2 GMean: IC50 (μM) (Biochemical Assay)
Experimental: The IC50 of certain compounds in this disclosure against TGFβR2 was conducted under contract at Thermo Fisher Scientific, Life Sciences Solutions as part of their SelectScreen™ profiling service. The TGFβR2 assay used the LanthaScreen® Europium Kinase Binding Assay. Binding of an Alexa Fluor® conjugate Tracer 199 (100 nM) to TGFβR2 (5 nM) was detected by addition of a Eu-labeled anti-tag antibody (5 nM) in Kinase Buffer A (50 mM HEPES pH 7.5, 0.01% BRIJ-35, 10 mM MgCl2, 1 mM EGTA) and 1% final DMSO. […] The percent inhibition was calculated from the emission ratio of Alexa Fluor® and Europium as documented by Thermo Fisher (www.thermofisher.com/kinaseprofiling). The IC50 of certain compounds in this disclosure was determined by testing a dilution series of the compound in duplicate at five concentrations (1.0, 0.25, 0.062, 0.015 and 0.0039 μM) by fitting the inhibition data with a sigmoidal curve fit model.
Table II provides data indicating TGFBR2 biochemical inhibitory activities for exemplary compounds as described herein.

[2] = target: T1, FLT3 D835Y (Homo sapiens, UniProt P36888, D835Y); assay: Biochemical FLT3 D835Y assay; conditions: geometric mean; assay as in US2017/0267660; read-out: FLT3 D835Y GMean: IC50 (μM) (Biochemical Assay)
T1 sequence (P36888 27-993 D835Y): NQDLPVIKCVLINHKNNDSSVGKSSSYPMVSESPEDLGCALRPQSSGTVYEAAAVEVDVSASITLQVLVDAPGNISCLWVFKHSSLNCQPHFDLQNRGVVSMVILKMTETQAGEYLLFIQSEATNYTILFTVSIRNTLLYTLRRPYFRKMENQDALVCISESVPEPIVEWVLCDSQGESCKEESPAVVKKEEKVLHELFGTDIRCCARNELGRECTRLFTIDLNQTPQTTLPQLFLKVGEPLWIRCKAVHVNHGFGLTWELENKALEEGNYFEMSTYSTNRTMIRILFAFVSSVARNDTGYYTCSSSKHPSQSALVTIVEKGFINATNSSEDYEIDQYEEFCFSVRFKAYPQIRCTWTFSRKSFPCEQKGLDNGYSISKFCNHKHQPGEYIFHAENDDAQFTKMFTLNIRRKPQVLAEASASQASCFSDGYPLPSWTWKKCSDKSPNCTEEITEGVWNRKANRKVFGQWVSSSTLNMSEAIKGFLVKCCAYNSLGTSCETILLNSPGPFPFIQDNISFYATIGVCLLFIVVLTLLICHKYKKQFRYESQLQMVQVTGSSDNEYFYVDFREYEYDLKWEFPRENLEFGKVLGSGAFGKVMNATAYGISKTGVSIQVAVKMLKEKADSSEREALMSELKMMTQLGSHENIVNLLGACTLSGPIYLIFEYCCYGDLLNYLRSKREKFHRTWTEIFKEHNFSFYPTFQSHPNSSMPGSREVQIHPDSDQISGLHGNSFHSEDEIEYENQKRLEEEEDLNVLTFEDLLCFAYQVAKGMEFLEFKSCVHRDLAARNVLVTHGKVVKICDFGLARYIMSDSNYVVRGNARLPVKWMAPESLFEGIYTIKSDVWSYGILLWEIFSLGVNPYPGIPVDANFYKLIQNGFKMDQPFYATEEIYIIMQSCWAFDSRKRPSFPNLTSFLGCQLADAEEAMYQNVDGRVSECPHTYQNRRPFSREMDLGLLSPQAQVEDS
Experimental: FLT3 D835Y assays were conducted on certain compounds of this disclosure as described in U.S. Patent Publication No. US2017/0267660.
Table II provides data indicating FLT3 D835Y biochemical inhibitory activities for exemplary compounds as described herein.

[3] = tested on: quizartinib resistance-causing mutants of FLT3-ITD; conditions: all identified quizartinib resistance-causing mutants and other mutant isoforms (Smith et al.); cited from earlier work

Sequence of TGFβR2 (P37173 23-567): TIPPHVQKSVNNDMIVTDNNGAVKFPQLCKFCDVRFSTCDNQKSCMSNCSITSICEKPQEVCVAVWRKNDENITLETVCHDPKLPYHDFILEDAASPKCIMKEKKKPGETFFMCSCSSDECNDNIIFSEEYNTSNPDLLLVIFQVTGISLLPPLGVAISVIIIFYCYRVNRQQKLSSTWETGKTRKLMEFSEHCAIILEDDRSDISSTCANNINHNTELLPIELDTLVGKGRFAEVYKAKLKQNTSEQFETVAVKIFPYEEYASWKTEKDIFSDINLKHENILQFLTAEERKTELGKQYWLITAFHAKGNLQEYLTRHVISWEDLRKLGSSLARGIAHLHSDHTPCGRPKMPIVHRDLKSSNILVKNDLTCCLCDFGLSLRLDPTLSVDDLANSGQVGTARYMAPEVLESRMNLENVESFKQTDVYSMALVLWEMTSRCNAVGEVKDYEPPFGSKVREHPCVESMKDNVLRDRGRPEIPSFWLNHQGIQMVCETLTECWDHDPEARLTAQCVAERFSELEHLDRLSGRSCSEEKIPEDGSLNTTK

Row | IC50 [1] [µM] | IC50 [2] [µM] | Structure (SMILES) | activity against quizartinib resistance-causing mutants [3]
1 | 0.0001 to 10 | 0.0001 to 10 | O=C(NC1CS(=O)(=O)C1)c1cccc(-c2cnc3[nH]c(-c4cnn(C(F)F)c4)cc3c2)n1 [P-010, 6-(2-(1-(difluoromethyl)-1H-pyrazol-4-yl)-1H-pyrrolo[2,3-b]pyridin-5-yl)-N-(1,1-dioxidothietan-3-yl)picolinamide] | 
2 | 0.0001 to 10 | 0.0001 to 10 | CC(C)(O)CNC(=O)c1cccc(-c2cnc3[nH]c(-c4cnn(C(F)F)c4)cc3c2)n1 [P-011, 6-(2-(1-(difluoromethyl)-1H-pyrazol-4-yl)-1H-pyrrolo[2,3-b]pyridin-5-yl)-N-(2-hydroxy-2-methylpropyl)picolinamide] | 
3 | 0.0001 to 10 | 0.0001 to 10 | O=C(NCC1(O)CC1)c1cccc(-c2cnc3[nH]c(-c4cnn(C(F)F)c4)cc3c2)n1 [P-012, 6-(2-(1-(difluoromethyl)-1H-pyrazol-4-yl)-1H-pyrrolo[2,3-b]pyridin-5-yl)-N-((1-hydroxycyclopropyl)methyl)picolinamide] | 
4 | 0.0001 to 10 | 0.0001 to 10 | O=C(NCC1(O)CCC1)c1cccc(-c2cnc3[nH]c(-c4cnn(C(F)F)c4)cc3c2)n1 [P-013, 6-(2-(1-(difluoromethyl)-1H-pyrazol-4-yl)-1H-pyrrolo[2,3-b]pyridin-5-yl)-N-((1-hydroxycyclobutyl)methyl)picolinamide] | 
5 | 0.0001 to 10 | 0.0001 to 10 | O=C(NC1COC1)c1cccc(-c2cnc3[nH]c(-c4cnn(C(F)F)c4)cc3c2)n1 [P-014, 6-(2-(1-(difluoromethyl)-1H-pyrazol-4-yl)-1H-pyrrolo[2,3-b]pyridin-5-yl)-N-(oxetan-3-yl)picolinamide] | 
6 | 0.0001 to 10 | 0.0001 to 10 | CN1CC(NC(=O)c2cccc(-c3cnc4[nH]c(-c5cnn(C(F)F)c5)cc4c3)n2)C1 [P-015, 6-(2-(1-(difluoromethyl)-1H-pyrazol-4-yl)-1H-pyrrolo[2,3-b]pyridin-5-yl)-N-(1-methylazetidin-3-yl)picolinamide] | 
7 | 0.0001 to 10 | 0.0001 to 10 | O=C(Nc1ncc[nH]1)c1cccc(-c2cnc3[nH]c(-c4cnn(C(F)F)c4)cc3c2)n1 [P-016, 6-(2-(1-(difluoromethyl)-1H-pyrazol-4-yl)-1H-pyrrolo[2,3-b]pyridin-5-yl)-N-(1H-imidazol-2-yl)picolinamide] | 
8 | 0.0001 to 10 | 0.0001 to 10 | O=C(Nc1cnc[nH]1)c1cccc(-c2cnc3[nH]c(-c4cnn(C(F)F)c4)cc3c2)n1 [P-017, 6-(2-(1-(difluoromethyl)-1H-pyrazol-4-yl)-1H-pyrrolo[2,3-b]pyridin-5-yl)-N-(1H-imidazol-5-yl)picolinamide] | 
9 | 0.0001 to 10 | 0.0001 to 10 | O=C(Nc1ccn[nH]1)c1cccc(-c2cnc3[nH]c(-c4cnn(C(F)F)c4)cc3c2)n1 [P-018, 6-(2-(1-(difluoromethyl)-1H-pyrazol-4-yl)-1H-pyrrolo[2,3-b]pyridin-5-yl)-N-(1H-pyrazol-5-yl)picolinamide] | 
10 | 0.0001 to 10 | 0.0001 to 10 | O=C(Nc1nnc[nH]1)c1cccc(-c2cnc3[nH]c(-c4cnn(C(F)F)c4)cc3c2)n1 [P-019, 6-(2-(1-(difluoromethyl)-1H-pyrazol-4-yl)-1H-pyrrolo[2,3-b]pyridin-5-yl)-N-(4H-1,2,4-triazol-3-yl)picolinamide] | 
11 | 0.0001 to 10 | 0.0001 to 10 | CC(C)(C#N)NC(=O)c1cncc(-c2cnc3[nH]c(-c4cnn(C(F)F)c4)cc3c2)n1 [P-021, N-(2-cyanopropan-2-yl)-6-(2-(1-(difluoromethyl)-1H-pyrazol-4-yl)-1H-pyrrolo[2,3-b]pyridin-5-yl)pyrazine-2-carboxamide] | 
12 | 0.0001 to 10 | 0.0001 to 10 | CC(C)(C#N)NC(=O)c1cc(F)cc(-c2cnc3[nH]c(-c4cnn(C(F)F)c4)cc3c2)n1 [P-024, N-(2-cyanopropan-2-yl)-6-(2-(1-(difluoromethyl)-1H-pyrazol-4-yl)-1H-pyrrolo[2,3-b]pyridin-5-yl)-4-fluoropicolinamide] | 

The remaining lines, values behind:

Row | Structure (SMILES) | IC50 [1] [µM] | IC50 [2] [µM] | activity against quizartinib resistance-causing mutants [3]
13 | CC(C)(C#N)NC(=O)c1cccc(-c2cnc3[nH]c(-c4cnn(CC#N)c4)cc3c2)n1 [P-001, 6-(2-(1-(cyanomethyl)-1H-pyrazol-4-yl)-1H-pyrrolo[2,3-b]pyridin-5-yl)-N-(2-cyanopropan-2-yl)picolinamide] | 0.0001 to 10 | 0.0001 to 10 | 
14 | CC(C)(C#N)NC(=O)c1cccc(-c2cnc3[nH]c(-c4c(F)nn(C(F)F)c4F)c(F)c3c2)n1 [P-003, N-(1-cyano-1-methyl-ethyl)-6-[2-[1-(difluoromethyl)-3,5-difluoro-pyrazol-4-yl]-3-fluoro-1H-pyrrolo[2,3-b]pyridin-5-yl]pyridine-2-carboxamide] | 0.0001 to 10 | 0.0001 to 10 | 
15 | CC(C)(C#N)NC(=O)c1cccc(-c2cnc3[nH]c(-c4cnn(C(F)F)c4)c(F)c3c2)n1 [P-004, N-(1-cyano-1-methyl-ethyl)-6-[2-[1-(difluoromethyl)pyrazol-4-yl]-3-fluoro-1H-pyrrolo[2,3-b]pyridin-5-yl]pyridine-2-carboxamide] | 0.0001 to 10 | 0.0001 to 10 | 
16 | CC(C)(C#N)NC(=O)c1cccc(-c2cnc3[nH]c(-c4cnn(C(F)F)c4)c(Br)c3c2)n1 [P-005, 6-[3-bromo-2-[1-(difluoromethyl)pyrazol-4-yl]-1H-pyrrolo[2,3-b]pyridin-5-yl]-N-(1-cyano-1-methyl-ethyl)pyridine-2-carboxamide] | 0.0001 to 10 | 0.0001 to 10 | 
17 | N#CC1(NC(=O)c2cccc(-c3cnc4[nH]c(-c5cnn(C(F)F)c5)cc4c3)n2)CC1 [P-006, N-(1-cyanocyclopropyl)-6-(2-(1-(difluoromethyl)-1H-pyrazol-4-yl)-1H-pyrrolo[2,3-b]pyridin-5-yl)picolinamide] | 0.0001 to 10 | 0.0001 to 10 | 
18 | N#CC1(NC(=O)c2cccc(-c3cnc4[nH]c(-c5cnn(C(F)F)c5)cc4c3)n2)CCC1 [P-007, N-(1-cyanocyclobutyl)-6-(2-(1-(difluoromethyl)-1H-pyrazol-4-yl)-1H-pyrrolo[2,3-b]pyridin-5-yl)picolinamide] | 0.0001 to 10 | 0.0001 to 10 | 
19 | N#CC1(CNC(=O)c2cccc(-c3cnc4[nH]c(-c5cnn(C(F)F)c5)cc4c3)n2)CC1 [P-008, N-((1-cyanocyclopropyl)methyl)-6-(2-(1-(difluoromethyl)-1H-pyrazol-4-yl)-1H-pyrrolo[2,3-b]pyridin-5-yl)picolinamide] | 0.0001 to 10 | 0.0001 to 10 | 
20 | O=C(NC1CC(O)C1)c1cccc(-c2cnc3[nH]c(-c4cnn(C(F)F)c4)cc3c2)n1 (centres unmarked) [P-009, 6-(2-(1-(difluoromethyl)-1H-pyrazol-4-yl)-1H-pyrrolo[2,3-b]pyridin-5-yl)-N-(3-hydroxycyclobutyl)picolinamide] | 0.0001 to 10 | 0.0001 to 10 | 
21 | CNC(=O)c1cc(Oc2ccc(NC(=O)Nc3ccc(Cl)c(C(F)(F)F)c3)cc2)ccn1 [sorafenib] |  |  | ineffective
